{
  "source": "patent US11464791B2",
  "about": "“Use of paricalcitol in the treatment of inflammatory anaemia” (priority 2014, dated 2022)",
  "key": {"[1]": {"assay": "Study B: cross-sectional comparison of paricalcitol and calcitriol (ESA dose, Hb, PTHi, ferrokinetics)", "assay_type": "in vivo, human", "conditions": "for ESA doses required: Epoetin beta; for PTHi: median (p25-p75)", "experimental": "A cross-sectional study designed to assess the differences between calcitriol and paricalcitol associated with the use of ESAs, both used in the treatment of secondary hyperparathyroidism. A total of 92 patients from the Chronic Dialysis Unit of the Hospital Universitario Son Espases (HUSE) in Palma de Mallorca and from the Chronic Haemodialysis Unit of the Policlínica Miramar were included. A total of 31 patients were treated with calcitriol and a total of 61 patients were treated with paricalcitol. The ESA analysed was Epoetin beta (Neorecormon).\nIn order to determine whether treatment with calcitriol is capable of giving rise to the same results obtained in the treatment with paricalcitol, the groups of patients included in Study B were analysed (Table 2), one of the groups treated with paricalcitol (n=61) and the other group treated with calcitriol (n=31)."}, "[2]": {"tested_on": "Erythropoietin", "assay": "Study A: plasma erythropoietin levels (ELISA)", "assay_type": "in vivo, human", "experimental": "Analytical determinations: all the blood samples were analysed in the central laboratory of the HUSE, applying the methodology regularly used in clinical practice: • Hb: Haemoglobin was determined on a monthly basis prior to the dialysis session and corresponding weekday. The analysis of the samples was performed using flow cytometry (CELL-DYN Sapphire®—Abbott) at the central laboratory of the HUSE. • Klotho: Human Soluble α-Klotho Assay Kit—IBL. ELISA (Enzyme-LinkedImmunoSorbentAssay) sandwich type using two types of high-specificity anti-Human Klotho antibodies (67G3 and 91F1). Using TeTraMeltilBenzidina (TMB) as a chromogeneous agent. • Hepcidin: DGR HepcidinProhormone ELISA kit. ELISA (Enzyme-LinkedImmunoSorbentAssay) of competitive type with anti-Pro-Hepcidin (polyclonal) antibodies. • IL-6: Quantikine ELISA Human IL-6 immunoassay. ELISA (Enzyme-LinkedImmunoSorbentAssay) sandwich type using specific antibodies for mouse monoclonal and polyclonal IL-6. • Erythropoietin: Quantikine IVD ELISA Human Erythropoietin Immunoassay. […]\nThe non-conventional inflammatory parameters were determined in months 3 and 6 of the study, due to the fact that it is considered that the first three months of the study were dedicated to ESA dose titration and the last three months to the maintenance phase, as mentioned previously. […]"}, "[3]": {"tested_on": "PTH", "conditions": "oral paricalcitol, cited from earlier work"}, "[4]": {"tested_on": "transferrin saturation index (TSI)", "assay": "Study A: evolution of the transferrin saturation index (TSI)", "assay_type": "in vivo, human", "conditions": "for average TSI: subgroup with IV Fe (n=25)", "experimental": "(§1) A controlled prospective study in which the evolution of ESA doses, Fe supplement doses, evolution of Fe, of transferrin, of ferritin, of the transferrin saturation index, of the haemoglobin levels and of the non-conventional markers associated with inflammatory anaemia was determined: Hepcidin and IL-6 and analysis of the hormones associated with a improved erythropoietic response. The variability of the haemoglobin was also assessed. A total of 31 patients were included in this study. The ESAs used by the patients were Epoetin beta (Neorecormon) and CERA.\n(§2) This study is a controlled, observational and analytical prospective-type study of cases and controls. The study lasted six months. In the first three months the ESA dose titrations were obtained and, in the remaining three months corresponded to the maintenance phase. The data shown in the present invention form part of the MIR-EPO Study (EudraCT: 2009-015511-40) https://www.clinicaltrialsregister.eu. The design of the MIR-EPO Study assessed patients being treated with an erythropietic agent (Epoetin-beta-Neorecormon or CERA). In said patients, the differences between the groups with and without paricalcitol were analysed, due to which the results shown in the present invention related specifically to the following groups: • Group of patients being treated with paricalcitol (paricalcitol+ESA), i.e. combined treatment, and • Group of patients being treated exclusively with an ESA.\nThe administration of iron supplements shall always be intravenous with the aim of maintaining a transferrin saturation index (TSI %) greater than 20%."}, "[5]": {"assay": "Study C: cross-sectional study of paricalcitol dose versus ESA dose and Hb levels", "assay_type": "in vivo, human", "conditions": "paricalcitol 5-10 μg/week", "source_text": "A cross-sectional study designed to assess the distribution of the dose of paricalcitol (μg/week) associated with a greater erythropoietic response. That is, the aim is to assess the predictive capacity of the doses of paricalcitol (μg/week) over the doses of ESA (UI/week), in addition to assessing the doses of paricalcitol to predict Hb levels (g/dl) and identify the doses of paricalcitol associated with certain Hb levels in a range between 10 and 12 g/dl, which are the levels considered to be optimum.\nA total of 58 patients were included in this study. The ESA analysed was Epoetin beta (Neorecormon).\nIn order to determine the most adequate doses required to obtain the best Hb levels and reduce the need for ESAs, a regression analysis was performed between the Hb levels, the doses of ESAs and the dose of paricalcitol in the group of patients of Study C (FIG. 2). As can be observed in said FIG. 2, the doses comprised between 5 and 10 μg were associated to a reduced need for ESAs. This trend was modified on increasing the doses of paricalcitol, due to which, according to this regression model, the administration of doses of paricalcitol higher than 10 μg/week predicts a greater use of ESAs."}, "[6]": {"conditions": "paricalcitol >10 μg/dialysis, haemodialysis patients; cited from earlier work"}, "[7]": {"assay": "Study A (MIR-EPO): ESA dose requirements", "assay_type": "in vivo, human", "experimental": "as §1\nas §2, with “The data shown in the present invention form part of the MIR-EPO Study (EudraCT: 2009-015511-40) https://www.clinicaltrialsregister.eu.” left out, “ESA. […]” for “ESA.”"}, "[8]": {"tested_on": "plasma iron (Fe^2+)", "assay": "Study A: evolution of iron (Fe^2+) levels", "assay_type": "in vivo, human", "conditions": "for Fe^2+ levels: subgroup with IV Fe supplements (n=25)", "experimental": "as §1, §2"}},
  "note": "Read-outs that look alike come from different tables or passages of the source.",
  "data": [
    {"compound": "C=C1/C(=C\\C=C2/CCC[C@]3(C)[C@@H]([C@H](C)CCCC(C)(C)O)CC[C@@H]23)C[C@@H](O)C[C@@H]1O", "note": "[calcitriol]", "values": [
      {"measurement": "Ferritin", "setting": "[1]", "value": "168 (111-298) ng/ml"},
      {"measurement": "Hb levels", "setting": "[1]", "value": "11.10 ± 1.16", "unit": "g/dL"},
      {"measurement": "TSI %", "setting": "[1]", "value": "24 ± 10", "unit": "%"},
      {"measurement": "ESA doses required", "setting": "[1]", "value": 9000, "unit": "UI/week"},
      {"measurement": "PTHi", "setting": "[1]", "value": "358 (230-623) pg/ml"}
    ]},
    {"compound": "C[C@H](/C=C/[C@H](C)C(C)(C)O)[C@H]1CC[C@H]2/C(=C/C=C3C[C@@H](O)C[C@H](O)C3)CCC[C@]12C", "note": "[paricalcitol, 19-nor-1, 25-(OH) 2-vitamin D2]", "values": [
      {"measurement": "plasma erythropoietin levels", "setting": "[2]; month 3", "value": "8.6 (4.6-16.7) mUI/ml"},
      {"measurement": "plasma erythropoietin levels", "setting": "[2]; month 6", "value": "20.2 (7.2-33.6) mUI/ml"},
      {"measurement": "PTH levels", "setting": "[3]; after treatment", "value": 93, "unit": "pg/mL"},
      {"measurement": "PTH levels", "setting": "[3]; basal level", "value": 147, "unit": "pg/mL"},
      {"measurement": "reduction of PTH levels with respect to the basal level", "setting": "[3]", "value": "~40", "unit": "%"},
      {"measurement": "average TSI", "setting": "[4]; month 0", "value": "25±6", "unit": "%"},
      {"measurement": "average TSI", "setting": "[4]; month 3", "value": "24±5", "unit": "%"},
      {"measurement": "average TSI", "setting": "[4]; month 6", "value": "30±19", "unit": "%"},
      {"measurement": "plasma Hb levels predicted by regression", "setting": "[5]", "value": "10-12 g/dl"},
      {"measurement": "calcium levels", "setting": "[6]", "value": 9.8, "unit": "mg/dL"},
      {"measurement": "evolution of ESA requirements", "setting": "[7]; months 0-6", "value": "significant decrease"},
      {"measurement": "lower dose of ESA versus group treated exclusively with ESA", "setting": "[7]; subgroup with IV Fe, month 6", "value": 24, "unit": "%"},
      {"measurement": "Ferritin", "setting": "[1]", "value": "494 (244-701) ng/ml"},
      {"measurement": "Hb levels", "setting": "[1]", "value": "11.89 ± 0.13", "unit": "g/dL"},
      {"measurement": "TSI %", "setting": "[1]", "value": "30 ± 10", "unit": "%"},
      {"measurement": "ESA doses required", "setting": "[1]", "value": "approximately 4000 UI/week"},
      {"measurement": "PTHi", "setting": "[1]", "value": "276 (170-449) pg/ml"},
      {"measurement": "Iron (Fe^2+) levels", "setting": "[8]; month 0", "value": "68 ± 23", "unit": "µg/dL"},
      {"measurement": "Iron (Fe^2+) levels", "setting": "[8]; month 3", "value": "68 ± 28", "unit": "µg/dL"},
      {"measurement": "Iron (Fe^2+) levels", "setting": "[8]; month 6", "value": "66 ± 37", "unit": "µg/dL"},
      {"measurement": "Fe^2+ levels", "setting": "[8]; month 0", "value": "61 ± 16", "unit": "µg/dL"},
      {"measurement": "Fe^2+ levels", "setting": "[8]; month 3", "value": "57 ± 14", "unit": "µg/dL"},
      {"measurement": "Fe^2+ levels", "setting": "[8]; month 6", "value": "68 ± 37", "unit": "µg/dL"}
    ]},
    {"compound": "C=C1CC[C@H](O)C/C1=C/C=C1\\CCC[C@]2(C)[C@@H]([C@H](C)CCCC(C)(C)O)CC[C@@H]12", "note": "[hidroferol, calcifediol]", "values": [
      {"measurement": "effect over TSI", "setting": "[4]; 6 months", "value": "not beneficial"},
      {"measurement": "TSI levels", "setting": "[4]; month 0", "value": "29±12", "unit": "%"},
      {"measurement": "TSI levels", "setting": "[4]; month 3", "value": "33±14", "unit": "%"},
      {"measurement": "TSI levels", "setting": "[4]; month 6", "value": "25±9", "unit": "%"}
    ]}
  ]
}
